Assay results from patent US20200017495A1, “NOVEL HETEROCYCLIC COMPOUNDS AND THEIR USE IN PREVENTING OR TREATING BACTERIAL INFECTIONS” (priority 2017, published 2020).
Where two headings read alike, the source gives them in different places.

Assays:
Test in all cases: MIC of compounds alone and combined with antibacterials, broth microdilution (CLSI)
Format in all cases: cell-based
[1] = test system: Enterobacter cloacae (ECL) isolates; conditions: Enterobacter cloacae, read-out: MIC
Procedure, shortened: (§1)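 First, log-phase suspensions are brought to 5.10^5 CFU/mL final in ca-MHB; plates then incubate 16-20 h at 35° C in air. Growth is judged visually, giving the compound MIC alone and the antibacterial MIC at each compound concentration.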

[2] = test system: Klebsiella pneumoniae (KPN) isolates; conditions: Klebsiella pneumoniae, read-out: MIC
Procedure, shortened: as §1

[3] = test system: Morganella morganii (MMO) isolates; conditions: Morganella morganii, read-out: MIC
Procedure, shortened: as §1

[4] = test system: Providencia rettgeri (PRE) isolates; conditions: Providencia rettgeri, read-out: MIC
Procedure, shortened: as §1

Measured: MIC

O=C1N2CC(n3cccn3)=CC(C2)N1OC(F)(F)C(=O)[O-].[Li+] (centres unmarked) [AF3]
32 µg/mL: [1]; ECL 2185D, alone | [1]; ECL 190310, alone | [1]; ECL 260253, alone | [1]; ECL HAN, alone | [1]; ECL UFR13, alone | [1]; ECL UFR14, alone | [1]; ECL UFR84, alone | [1]; strain ECL UFR192, compound alone | [1]; strain ECL UFR198, compound alone | [1]; strain ECL UFR203, compound alone | [2]; KPN 140513, alone | [2]; KPN 190128, alone | [2]; KPN 190270, alone | [2]; KPN 700603, alone | [2]; KPN UFR24, alone | [2]; KPN UFR46, alone | [2]; KPN UFR65, alone | [2]; KPN UFR66, alone | [2]; KPN UFR67, alone | [2]; KPN UFR79, alone | [2]; KPN UFR80, alone | [2]; KPN UFR215, alone | [2]; strain KPN 140347, compound alone | [2]; strain KPN UFR229O, compound alone | [3]; MMO 200321, alone | [3]; MMO UFR144, alone | [3]; MMO UFR241, alone | [3]; MMO UFR242, alone | [3]; MMO UFR245, alone | [3]; MMO UFR246, alone | [4]; strain PRE UFR97, compound alone | [4]; strain PRE UFR236, compound alone
8 µg/mL: [1]; ECL 200322, alone | [1]; ECL 260508, alone | [1]; ECL UFR12, alone | [1]; ECL UFR38, alone | [1]; ECL UFR51, alone | [1]; ECL UFR70, alone | [2]; KPN 131119, alone | [2]; KPN ARA, alone | [2]; KPN LIB, alone | [2]; KPN UFR23, alone | [2]; KPN UFR25, alone | [2]; KPN UFR43, alone | [2]; KPN UFR53, alone | [2]; KPN UFR77, alone | [2]; KPN UFR217, alone | [2]; KPN UFR222, alone | [2]; strain KPN UFR171, compound alone | [2]; strain KPN UFR172, compound alone
4 µg/mL: [1]; ECL 190408, alone | [2]; KPN 160143, alone | [2]; KPN 190551, alone | [2]; KPN 200047, alone | [2]; KPN 200327, alone | [2]; KPN 260376, alone | [2]; KPN UFR216, alone | [2]; KPN UFR218, alone | [2]; KPN UFR220, alone | [2]; KPN UFR221, alone | [4]; strain PRE UFR96, compound alone
16 µg/mL: [1]; ECL 200138, alone | [1]; ECL 260033, alone | [1]; ECL 260323, alone | [1]; ECL NEM146383, alone | [1]; ECL P99, alone | [1]; ECL UFR60, alone | [1]; ECL UFR85, alone | [1]; ECL UFR200, alone | [1]; strain ECL UFR193, compound alone | [1]; strain ECL UFR194, compound alone | [1]; strain ECL UFR195, compound alone | [1]; strain ECL UFR196, compound alone | [1]; strain ECL UFR197, compound alone | [2]; BAA1898, KPN BAA-1898, alone | [2]; KPN 6299, alone | [2]; KPN 110376, alone | [2]; KPN 121206, alone | [2]; KPN 190425, alone | [2]; KPN 260251, alone | [2]; KPN UFR22_O, alone | [2]; KPN UFR27, alone | [2]; KPN UFR28, alone | [2]; KPN UFR42, alone | [2]; KPN UFR68, alone | [2]; KPN UFR81, alone | [2]; KPN UFR219, alone | [2]; strain KPN UFR162, compound alone | [2]; strain KPN UFR163, compound alone | [2]; strain KPN UFR164, compound alone | [2]; strain KPN UFR165, compound alone | [2]; strain KPN UFR168, compound alone | [2]; strain KPN UFR170, compound alone | [3]; MMO UFR247, alone | [4]; PRE UFR99, alone
> 32 µg/mL: [1]; strain ECL UFR214, compound alone | [1]; strain ECL UFR252PT, compound alone | [2]; KPN 260252, alone | [2]; KPN 270077, alone | [2]; KPN UFR33, alone | [2]; KPN UFR76, alone | [2]; KPN UFR78, alone | [2]; KPN UFR227O, alone | [2]; strain KPN UFR166, compound alone | [2]; strain KPN UFR167, compound alone | [2]; strain KPN UFR169, compound alone | [3]; MMO UFR240, alone | [3]; MMO UFR243, alone | [3]; MMO UFR244, alone | [3]; strain MMO UFR145, compound alone
